From article PMC12670396, “Crizotinib- or Ceritinib-Conjugated Platinum(IV) Prodrugs As Potent Multiaction Agents Inducing Antiproliferative Effects in 2D and 3D Cancer Cell Models” (Journal of Medicinal Chemistry, 2025)
Where two headings read alike, the source gives them in different places. Each block holds one compound with its values, some of them ahead of it.

What was measured:
MDA-MB-231 = assay: MTT cytotoxic/antiproliferative activity, 72 h; type: cell-based, human; settings: MDA-MB-231, MTT, 72 h
NCI-H2228 = assay: MTT cytotoxic/antiproliferative activity, 72 h; type: cell-based, human; settings: NCI-H2228, MTT, 72 h
RD = assay: MTT cytotoxic/antiproliferative activity, 72 h; type: cell-based, human; settings: MTT, 72 h
A549 = assay: MTT cytotoxic/antiproliferative activity, 72 h; type: cell-based, human; settings: A549, MTT, 72 h
HCT116 = assay: MTT cytotoxic/antiproliferative activity, 72 h; type: cell-based, human; settings: HCT116, MTT, 72 h
CT26 cell line = assay: MTT cytotoxic/antiproliferative activity, 72 h; type: cell-based, murine; settings: Mus musculus
A549 spheroids = assay: Cytotoxicity in 3D spheroids, CellTiter-Glo 3D; type: cell-based, human; settings: Homo sapiens, A549 3D spheroids, 96 h
Experimental: (§1) In the 3D structure, the gradients of gases, nutrients, and therapeutics play a role in the final cytotoxicity of a compound.
(§2) A549 and NCI-H2228 cells were seeded in ultralow attachment, U-shape plates (Corning) at a density of 800 cells/well in the tumorsphere medium consisting of DMEM/F12 medium (Sigma), fibroblast growth factor (20 ng/mL; Sigma), epidermal growth factor 2 (10 ng mL^–1; Sigma), B27 supplement (1×; Gibco), bovine serum albumin, bovine serum albumin (BSA) (1.5 mg mL^–1; Sigma). […] CellTiter-Glo 3D viability assay was used for the experiment evaluation following the manufacturer’s instructions. The bioluminescence signal, proportional to the number of living cells, was measured using the luminescence reader SPARK, and IC50 values were calculated.

NCI-H2228 spheroids = assay: Cytotoxicity in 3D spheroids, CellTiter-Glo 3D; type: cell-based, human; settings: Homo sapiens, NCI-H2228 3D spheroids, 96 h
Experimental: as §1, §2

MRC-5 = assay: MTT cytotoxicity in noncancerous cells, 72 h; type: cell-based, human
Experimental: (§3) Growth inhibition activity in cancer cell lines was compared with the activity to inhibit the proliferation of normal (noncancerous) cells, namely MRC-5, IMR-90, hTERT-HPNE, and MCF10A cells. Selectivity indexes (SI) were calculated as (IC50 in noncancerous cells)/(average IC50 in cancer cells). […] We further assessed the toxicity of several of the compounds in hepatocyte-like cells (HLC) generated from human pluripotent cells.
(§4) Cytotoxicity in hepatocyte-like cells (HLC). STEMdiff Hepatocyte Kit was used to generate HLC from human pluripotent stem cells. Cytotoxicity of several of the tested compounds in HLC was evaluated using the sulphorhodamine B assay.

MCF10A = assay: MTT cytotoxicity in noncancerous cells, 72 h; type: cell-based, human
Experimental: as §3, §4

hTERT-HPNE = assay: MTT cytotoxicity in noncancerous cells, 72 h; type: cell-based, human
Experimental: as §3, §4

IMR-90 = assay: MTT cytotoxicity in noncancerous cells, 72 h; type: cell-based, human; settings: IMR-90, MTT
Experimental: as §3, §4

MMC2 = assay: MTT cytotoxicity in NER-deficient cells, 72 h; type: cell-based, Chinese hamster; settings: for IC50: MMC2 (NER deficient), MTT, 72 h; for Index F: IC50(CHOK1)/IC50(MMC2)
Source text: The cytotoxicity assay was also employed to determine whether DNA damage might be involved in the mechanism of action of the tested compounds. The Chinese hamster ovary MMC2 cell line harbors the ERCC3/XPB mutation, which renders it deficient in nucleotide excision repair (NER), whereas the parent line CHOK1 is proficient in this repair process. Thus, the MMC2 line is often more sensitive to agents causing DNA damage, especially NER-reparable DNA damage, than CHOK1. […] Phosphorylation of H2AX is a commonly used marker of DNA damage. […]

[1] = Cytotoxicity in hepatocyte-like cells, sulphorhodamine B assay; type: cell-based; settings: hepatocyte-like cells from human pluripotent cells
Experimental: as §3, §4

U87-MG = assay: MTT cytotoxic/antiproliferative activity, 72 h; type: cell-based, human; settings: MTT, 72 h
Experimental: (§5) A panel of six cancer cell lines was used to evaluate the cytotoxic potential of the investigated compounds.
as §4

[2] = tested on: panel of six cancer cell lines; assay: MTT, panel of six cancer cell lines (average, ranges); type: cell-based, human; settings: average over six cancer cell lines, read-out: av cancer (average IC50 in cancer cells)
Experimental: as §5, §4

CHOK1 = assay: MTT cytotoxicity in NER-proficient cells, 72 h; type: cell-based, Chinese hamster
Source text: The cytotoxicity assay was also employed to determine whether DNA damage might be involved in the mechanism of action of the tested compounds. The Chinese hamster ovary MMC2 cell line harbors the ERCC3/XPB mutation, which renders it deficient in nucleotide excision repair (NER), whereas the parent line CHOK1 is proficient in this repair process. Thus, the MMC2 line is often more sensitive to agents causing DNA damage, especially NER-reparable DNA damage, than CHOK1. […] Phosphorylation of H2AX is a commonly used marker of DNA damage.
as §4

[3] = tested on: normal (noncancerous) cells MRC-5, IMR-90, hTERT-HPNE, MCF10A; assay: MTT, noncancerous cell lines (average, selectivity index); type: cell-based, human; settings: for IC50: average over MRC-5, IMR-90, hTERT-HPNE, MCF10A, read-out: av norm (average IC50 in noncancerous cells); for SI, selectivity index: IC50(normal cells)/averageIC50(cancer cells)
Experimental: as §3, with “pluripotent cells. […]” for “pluripotent cells.”

[4] = Stability in RPMI cell culture medium with serum (HPLC); settings: for intact Pt(IV) prodrug still present: after 3 days in the media
Experimental: Two conditions must be met for Pt(IV) complexes to serve as true prodrugs: they must remain stable in biological fluids and should be activated by reduction within the cancer cells to release the bioactive components in their active form, thereby facilitating the rapid onset of cytotoxic effects. […] The reduction in the area of the HPLC peak of the compounds was monitored as a function of time, and their half-lives were calculated (Table and Figures S26,S27).
The stock solutions were prepared by dissolving the compounds in a 1:9 (v/v) mixture of DMSO and RPMI media. After preparation, the samples were injected and stored at 37 °C throughout the experiment. The final concentration of the complexes used for the experiment is 50–60 μM.

[5] = Reduction by L-ascorbic acid in phosphate buffer (RP-HPLC); type: physicochemical; settings: 10 equiv L-ascorbic acid, 10% DMSO in 100 mM phosphate buffer pH 7.4, 37 °C
Experimental: The reduction of Pt(IV) complexes was performed by reacting with 10 equiv of L-ascorbic acid in 10% DMSO in 100 mM phosphate buffer (pH 7.4) at 37 °C, and was monitored by reverse-phase analytical HPLC. The half-lives for the reduction were calculated from the decreasing peak areas as a function of time.
The reduction of the Pt(IV) complexes was performed in the presence of 10 equiv of L-ascorbic acid (AA) in phosphate buffer (100 mM, pH 7.4) at 37 °C using reverse-phase analytical HPLC. […] The platinum complexes were dissolved in 10% DMSO with 50% MeOH and added to 100 mM phosphate buffer (pH 7.4). […] The samples were injected and stored at 37 °C throughout the experiment.

[6] = 10% DMSO in RPMI cell culture medium containing serum, 37 °C, HPLC

Structure (SMILES): O=C1[O][Pt]2([NH][C@@H]3CCCC[C@H]3[NH]2)[O]C1=O [OxPt, oxaliplatin, reference compound]
IC50 (MDA-MB-231): 6.2 ± 0.9 µM | IC50 (NCI-H2228): 3.8 ± 0.4 µM | IC50 (RD): 4.3 ± 0.5 µM | IC50 (A549): 1.6 ± 0.6 µM | IC50 (HCT116): 1.3 ± 0.1 µM

Structure (SMILES): Cc1cc(Nc2ncc(Cl)c(Nc3ccccc3S(=O)(=O)C(C)C)n2)c(OC(C)C)cc1C1CCN(C(=O)[O][Pt]([OH])([Cl])[Cl])CC1.N.N [compound 6, ctc-[Pt(NH3)2(ceritinib)(OH)Cl2]]
stability half-life (t 1/2) [4, 6]: 48 h | IC50 (MDA-MB-231): 1.1 ± 0.3 µM | IC50 (NCI-H2228): 0.21 ± 0.06 µM | IC50 (MRC-5; MRC-5, MTT): 2.6 ± 0.9 µM | IC50 (MCF10A): 2.6 ± 0.2 µM | IC50 (hTERT-HPNE): 2.7 ± 0.5 µM | IC50 (IMR-90): 4.1 ± 0.9 µM | Index F (MMC2): 3.79(*) | IC50 (MMC2): 0.29 ± 0.09 µM | IC50 (RD): 0.6 ± 0.2 µM | IC50 (A549): 0.35 ± 0.06 µM | IC50 (U87-MG): 0.8 ± 0.2 µM | reduction half-life (t 1/2) [5]: 2.2 h | IC50 [2]: 0.63 µM | IC50 (HCT116): 0.7 ± 0.3 µM | IC50 (CHOK1): 1.1 ± 0.2 µM | SI, selectivity index [3]: 4.8 | IC50 [3]: 3 µM

Structure (SMILES): Cc1cc(Nc2ncc(Cl)c(Nc3ccccc3S(=O)(=O)C(C)C)n2)c(OC(C)C)cc1C1CCN(C(=O)[O][Pt]2([O]C(=O)CCCc3ccccc3)[O]C(=O)C(=O)[O]2)CC1.N[C@@H]1CCCC[C@H]1N [compound 8, ctc-[Pt(DACH)(ceritinib)(PhB)(Ox)]]
stability half-life (t 1/2) [4, 6]: >75 h | intact Pt(IV) prodrug still present ([4]; 37 °C): > 65% | IC50 (MDA-MB-231): 1.5 ± 0.4 µM | IC50 (NCI-H2228): 0.8 ± 0.3 µM | IC50 (MRC-5; MRC-5, MTT): 2.3 ± 0.6 µM | IC50 (MCF10A): 2.9 ± 0.4 µM | IC50 (hTERT-HPNE): 3.1 ± 0.6 µM | IC50 (IMR-90): 5 ± 0.6 µM | Index F (MMC2): 1.22 | IC50 (MMC2): 0.9 ± 0.2 µM | IC50 (RD): 2.2 ± 0.4 µM | IC50 (A549): 1.3 ± 0.2 µM | reduction half-life (t 1/2) [5]: 12.5 h | IC50 [2]: 1.3 µM | IC50 (HCT116): 0.88 ± 0.06 µM | IC50 (CHOK1): 1.1 ± 0.2 µM | SI, selectivity index [3]: 2.5 | IC50 [3]: 3.3 µM

Continued, in another order:

IC50 ([2]; Homo sapiens): 1.7 µM
Structure (SMILES): C[C@@H](Oc1cc(-c2cnn(C3CCNCC3)c2)cnc1N)c1c(Cl)ccc(F)c1Cl [compound 1, crizotinib]
IC50 (MDA-MB-231; Homo sapiens): 1.2 ± 0.3 µM | IC50 (CT26 cell line): 1.8 ± 0.4 µM | IC50 (NCI-H2228; Homo sapiens): 0.82 ± 0.07 µM | IC50 (A549 spheroids): 3 ± 1 µM | IC50 (NCI-H2228 spheroids): 1.5 ± 0.3 µM | IC50 (MRC-5; Homo sapiens, MRC5, MRC-5, MTT): 4.3 ± 0.3 µM | IC50 (MCF10A; Homo sapiens, MCF-10A): 6.4 ± 0.7 µM | IC50 (hTERT-HPNE; Homo sapiens): 6.9 ± 0.8 µM | IC50 (IMR-90; Homo sapiens): 7.6 ± 0.9 µM | IC50 (MMC2; Cricetulus griseus): 1.4 ± 0.3 µM | IC50 [1]: 9 ± 3 µM | IC50 (RD; Homo sapiens): 1.4 ± 0.4 µM | IC50 (A549; Homo sapiens): 1 ± 0.2 µM | IC50 (U87-MG; Homo sapiens, U-87 MG): 3.9 ± 0.5 µM | IC50 (HCT116; Homo sapiens, HCT-116): 1.9 ± 0.5 µM | IC50 (CHOK1; Cricetulus griseus, CHO-K1): 1.3 ± 0.5 µM | IC50 ([3]; Homo sapiens): 6.3 µM

stability half-life (t 1/2) ([4]; serum): 75 h | reduction half-life (t 1/2) [5]: 2.7 h | IC50 [2]: 1.6 µM
Structure (SMILES): CC(Oc1cc(-c2cnn(C3CCN(C(=O)[O][Pt]([OH])([Cl])[Cl])CC3)c2)cnc1N)c1c(Cl)ccc(F)c1Cl.N.N (stereo not drawn) [compound 2, ctc-[Pt(NH3)2(crizotinib)(OH)Cl2]]
IC50 (MDA-MB-231): 1.9 ± 0.6 µM | IC50 (NCI-H2228): 0.74 ± 0.08 µM | IC50 (MRC-5; MRC-5, MTT): 4.2 ± 0.9 µM | IC50 (MCF10A): 5.1 ± 0.6 µM | IC50 (hTERT-HPNE): 5.2 ± 0.6 µM | IC50 (IMR-90): 7.4 ± 0.7 µM | Index F (MMC2): 1.95 | IC50 (MMC2): 0.77 ± 0.09 µM | IC50 (RD): 2 ± 0.4 µM | IC50 (A549): 0.8 ± 0.1 µM | IC50 (U87-MG): 2 ± 0.7 µM | IC50 (HCT116): 2.1 ± 0.5 µM | IC50 (CHOK1): 1.5 ± 0.6 µM | SI, selectivity index [3]: 3.4 | IC50 [3]: 5.5 µM

intact Pt(IV) prodrug still present ([4]; 37 °C): more than 80% | stability half-life (t 1/2) ([4]; serum): >75 h | reduction half-life (t 1/2) [5]: 11.5 h | IC50 [2]: 1.5 µM
Structure (SMILES): C[C@@H](Oc1cc(-c2cnn(C3CCN(C(=O)[O][Pt]4([O]C(=O)CCCc5ccccc5)[O]C(=O)C(=O)[O]4)CC3)c2)cnc1N)c1c(Cl)ccc(F)c1Cl.N[C@@H]1CCCC[C@H]1N [compound 4, ctc-[Pt(DACH)(crizotinib)(PhB)(Ox)]]
IC50 (MDA-MB-231): 1.5 ± 0.5 µM | IC50 (NCI-H2228): 1.3 ± 0.4 µM | IC50 (MRC-5; MRC-5, MTT): 3.1 ± 0.9 µM | IC50 (MCF10A): 2.4 ± 0.5 µM | IC50 (hTERT-HPNE): 3.2 ± 0.6 µM | IC50 (IMR-90): 2.9 ± 0.4 µM | Index F (MMC2): 1.08 | IC50 (MMC2): 1.3 ± 0.4 µM | IC50 (RD): 1.6 ± 0.2 µM | IC50 (A549): 1.5 ± 0.4 µM | IC50 (U87-MG): 1.8 ± 0.4 µM | IC50 (HCT116): 1 ± 0.2 µM | IC50 (CHOK1): 1.4 ± 0.4 µM | SI, selectivity index [3]: 1.9 | IC50 [3]: 2.9 µM
